Patent US9751851B2, “Molecules and compositions that inhibit gram negative bacteria and their uses” (THE TRUSTEES OF PRINCETON UNIVERSITY, priority 2013, dated 2017)
Where two headings read alike, the source gives them in different places.

Assays:
[1] = tested on: wild-type P. aeruginosa PA14; assay: microbe, parasite or virus in culture; format: cell-based; settings: for inhibition at 100 µM: Pseudomonas aeruginosa, PA14, 17 h; for inhibition at 100 µM / Efficacy (%): reduction of pyocyanin vs WT P. aeruginosa PA14: 0% = WT level, 100% = background medium; for IC50: WT P. aeruginosa PA14, 17 hr growth, titration, read-out: IC50 for inhibition of pyocyanin production; for inhibition of pyocyanin production (in words): wild-type P. aeruginosa PA14, end point assays at 100 μM
Description: Methods. The oxidized form of pyocyanin imparts a green color to P. aeruginosa cultures, making the production of pyocyanin convenient to monitor by UV/Vis absorbance. Overnight P. aeruginosa cultures were subcultured into 5 mL fresh medium at 1:1000 dilution. Synthetic compounds were assayed at 100 μM for end point assays and at concentrations ranging from 200 nM to 200 μM for titrations following 17 hr of aerobic growth with shaking at 37° C. Cells were separated from culture fluids via centrifugation at 13,000 rpm for 15 min. Culture fluids were passed through 0.22 μm syringe driven filters (Millipore). Cell-free culture fluids were analyzed for pyocyanin using wavelength scans on a Beckman Coulter DU-800 spectrophotometer from 200 nm to 800 nm 695 nm was chosen for graphical representation. Titration data were fit with a variable-slope sigmoidal dose-response curve using GraphPad Prism to determine the IC50 values.
The compounds of the first library were assayed in wild-type (WT) P. aeruginosa PA14. Pyocyanin was used as a read-out for quorum sensing activity based on its absorbance at 695 nm. The efficacy of the compounds at reducing pyocyanin levels was calculated with respect to WT levels of pyocyanin, where WT levels of pyocyanin would lead to a 0% efficacy, and an absorbance equal to the background medium would lead to a 100% efficacy. Agonists that increase pyocyanin production have negative efficacy values.

P. aeruginosa PA14 = assay: Growth of P. aeruginosa monitored by absorbance at 600 nm; format: cell-based
[2] = read-out: Efficacy (%), Table 4
[3] = read-out: Efficacy (%), Table 2, negative = agonist
[4] = read-out: Efficacy (%), Table 3
[5] = read-out: Efficacy (%), Table 1, negative = agonist

O=C(CNc1cccc(F)c1)Nc1ccnc(C(F)(F)F)c1 [S80, 4-amino-2-trifluoromethylpyridine-C6-3-fluoroaniline hybrid]
inhibition at 100 µM [1, 2]: 100%
Efficacy (%) ([1]; Table 4): 100 ± 4%

O=C(COc1cccc(Br)c1)Nc1ccncc1 [S37, 4-aminopyridine-C4-3-bromophenoxyhybrid]
Efficacy (%) ([1]; Table 3, listed as drawing 59): 21 ± 5%

COc1cc(NC(=O)COc2cccc(Br)c2)ccn1 [S42, 4-amino-2-methoxypyridine-C4-3-bromophenoxyhybrid]
Efficacy (%) ([1]; Table 3, listed as drawing 63): 20 ± 1%

CCCCCCCCCCCC(=O)Nc1ccc2[nH]ccc2c1 [S25, C12-5-aminoindole]
inhibition at 100 µM [1, 3]: -11 ± 3%

COc1cc(NC(=O)COc2cccc(Br)c2)nc(OC)n1 [S54, 4-amino-2,6-dimethoxypyrimidine-C6-3-bromophenoxyhybrid]
inhibition at 100 µM [1, 4]: 15 ± 7%

O=C(COc1cccc(Br)c1)Nc1ccncn1 [S51, 4-aminopyrimidine-C6-3-bromophenoxyhybrid]
inhibition at 100 µM [1, 4]: 27 ± 7%

CCCCCCCCCCCCNC(=O)Cc1c[nH]c2ccccc12 [S34, C12-3-(methylamido)indole]
inhibition at 100 µM [1, 3]: 0.6 ± 4%

CCCCCCCCCCCCNC(=O)c1c[nH]c2ccccc12 [S33, C12-3-amidoindole]
inhibition at 100 µM [1, 3]: 4.4 ± 3%

CCCCCCCCCCCC(=O)Nc1ccccn1 [S6, C12-2-aminopyridine]
inhibition at 100 µM [1, 5]: 55 ± 3%

O=C(COc1cccc(I)c1)Nc1ccnc(C(F)(F)F)c1 [S66, 4-amino-2-trifluoromethylpyridine-C6-3-iodophenoxyhybrid]
inhibition at 100 µM [1, 2]: 95%
Efficacy (%) ([1]; Table 4): 95 ± 3%

O=C(CCCCCCCCCCN=C=S)CC(=O)NC1CCOC1=O (centres unmarked) [itc-13, reference compound]
IC50 [1]: 56 µM

CCCCCCCCCCCC(=O)O/N=C1\COc2ccccc21 [S29, C12-dihydrobenzofuran acylhydroxylamine]
inhibition at 100 µM [1, 3]: 12 ± 3%

O=C(COc1cccc(Br)c1)Nc1cccc(C(F)(F)F)c1 [S59, 1-amino-3-trifluoromethyl-C6-3-bromophenoxyhybrid]
inhibition at 100 µM [1, 4]: 62%
Efficacy (%) ([1]; Table 3): 62 ± 6%

O=C(CCCOc1cccc(Cl)c1)NC1CCSC1=O (centres unmarked) [mCTL]
effect on P. aeruginosa PA14 growth (P. aeruginosa PA14): not affecting P. aeruginosa PA14 growth
IC50 [1]: 9 µM
inhibition of pyocyanin production (in words) [1]: potent inhibition of pyocyanin

Cc1cccc(OCC(=O)Nc2ccnc(C(F)(F)F)c2)c1 [S76, 4-amino-2-trifluoromethylpyridine-C6-3-methylphenoxyhybrid]
inhibition at 100 µM [1, 2]: 81%
Efficacy (%) ([1]; Table 4): 81 ± 4%

CCCCCCCCCCCC(=O)Nc1ccncn1 [S9, C12-4-aminopyrimidine]
inhibition at 100 µM [1, 5]: 55 ± 8%

O=C(CCCCOc1cccc(Br)c1)NC1CCSC1=O (centres unmarked) [5C-mBTL]
inhibition of pyocyanin production (in words) [1]: most effective inhibitor of pyocyanin production

O=C(COc1ccccc1O)Nc1ccnc(C(F)(F)F)c1 [S78, 4-amino-2-trifluoromethylpyridine-C6-2-hydroxyphenoxyhybrid]
inhibition at 100 µM [1, 2]: 95%
Efficacy (%) ([1]; Table 4): 95 ± 4%

CCCCCCCCCCCC(=O)Nc1ccc2oc3c(c2c1)CCCC3 [S35, C12-2-amino-tetrahydrodibenzofuran]
inhibition at 100 µM [1, 3]: 6.1 ± 4%

O=C(COc1cccc([N+](=O)[O-])c1)Nc1ccnc(C(F)(F)F)c1 [S73, 4-amino-2-trifluoromethylpyridine-C6-3-nitrophenoxyhybrid]
inhibition at 100 µM [1, 2]: 39 ± 36%

O=C(COc1cccc(Br)c1)Nc1ccnc(F)c1 [S41, 4-amino-2-fluoropyridine-C6-3-bromophenoxyhybrid]
inhibition at 100 µM [1, 4]: 31 ± 6%

O=C(COc1cccc(Br)c1)Nc1ccnc(C(F)(F)F)c1 [S56, 4-amino-2-trifluoromethylpyridine-C4-3-bromophenoxyhybrid]
Efficacy (%) ([1]; Table 3, listed as drawing 74): 43 ± 8%

O=C(COc1cccc(Br)c1)Nc1ccnc(C(F)(F)F)c1 [S58, 4-amino-2-trifluoromethylpyridine-C7-3-bromophenoxyhybrid]
Efficacy (%) ([1]; Table 3, listed as drawing 77): 23 ± 7%

CCCCCCCCCCCC(=O)NCc1ccncc1 [S22, C12-4-(aminomethyl)pyridine]
inhibition at 100 µM [1, 3]: 7.7 ± 5%

O=C(COc1ccc(F)cc1F)Nc1ccnc(C(F)(F)F)c1 [S70, 4-amino-2-trifluoromethylpyridine-C6-2,4-bisfluorophenoxyhybrid]
inhibition at 100 µM [1, 2]: 49 ± 3%

CCCCCCCCCC(=O)CC(=O)Nc1ccnc(OC)c1 [S16, 3OC12-4-amino-2-methoxypyridine]
inhibition at 100 µM [1, 3]: 24 ± 1%

CCCCCCCCCCCC(=O)Nc1ccncc1C(F)(F)F [S14, C12-4-amino-3-trifluoromethylpyridine]
inhibition at 100 µM [1, 3]: -17 ± 2%

CCCCCCCCCCCC(=O)OCc1ccncc1 [S23, C12-4-(hydroxymethyl)pyridine]
inhibition at 100 µM [1, 3]: -15 ± 4%

CCCCCCCCCCCC(=O)Nc1ccnc(C(F)(F)F)c1 [S20, C12-4-amino-2-trifluoromethylpyridine]
inhibition at 100 µM [1, 3]: 27 ± 3%

chlorothiolactone [CTL, reference compound]
inhibition of pyocyanin production (in words) [1]: Neither CL nor CTL inhibited pyocyanin production

CCCCCCCCCCCC(=O)N1CCN(c2ccncc2)CC1 [S24, C12-4-(piperazine)pyridine]
inhibition at 100 µM [1, 3]: -42 ± 2%

O=C(COc1ccc(F)cc1)Nc1ccnc(C(F)(F)F)c1 [S68, 4-amino-2-trifluoromethylpyridine-C6-4-fluorophenoxyhybrid]
inhibition at 100 µM [1, 2]: 54%
Efficacy (%) ([1]; Table 4): 54 ± 4%

COc1cc(NC(=O)COc2cccc(Br)c2)ccn1 [S44, 4-amino-2-methoxypyridine-C5-3-bromophenoxyhybrid]
Efficacy (%) ([1]; Table 3, listed as Table 3 entry 6): 81%
Efficacy (%) ([1]; Table 3, listed as drawing 64): 81 ± 6%

COc1nccc(NC(=O)COc2cccc(Br)c2)n1 [S53, 4-amino-2-methoxypyrimidine-C6-3-bromophenoxyhybrid]
inhibition at 100 µM [1, 4]: 16 ± 5%

O=C(COc1ccccc1F)Nc1ccnc(C(F)(F)F)c1 [S69, 4-amino-2-trifluoromethylpyridine-C6-2-fluorophenoxyhybrid]
inhibition at 100 µM [1, 2]: 78 ± 3%

CCCCCCCCCCCC(=O)Nc1ccnc(F)c1 [compound 15, C12-4-amino-2-fluoropyridine]
inhibition at 100 µM [1, 3]: 70%
Efficacy (%) ([1]; Table 2, negative = agonist): 70 ± 2%

N#Cc1cccc(OCC(=O)Nc2ccnc(C(F)(F)F)c2)c1 [S74, 4-amino-2-trifluoromethylpyridine-C6-3-cyanophenoxyhybrid]
inhibition at 100 µM [1, 2]: 0.48 ± 7%
